The numbers were not newly measured in patent publication US20210008096A1, “SUPPRESSION OR REDUCTION OF THE PAT[…] VIRULENCE OF A C[…]” (Da Volterra, priority 2015, published 2021), which cites them from elsewhere.

The data set relates to Clostridium difficile. The conditions noted are these: following treatment of CDAD; 15% vs 25%.

Turning to `CCc1c(Cl)c(O)c(Cl)c(O)c1C(=O)O[C@H]1[C@H](O)[C@H](OC)[C@H](OC/C2=C\C=C\C[C@H](O)/C(C)=C/[C@H](CC)[C@@H](O[C@@H]3OC(C)(C)[C@@H](OC(=O)C(C)C)[C@H](O)[C@@H]3O)/C(C)=C/C(C)=C/C[C@@H]([C@@H](C)O)OC2=O)O[C@@H]1C` [fidaxomycin, fidaxomicin], the rate of recurrence is listed as 15%.
